What is called IC50 is the concentration at which inhibition is half-maximal. A higher IC50 goes with a need for much substance.

Structures are written as SMILES.

This note sets out measurements from patent publication US6117875A, “Pyrido (2,3-B) pyrazine derivatives” (Fujisawa Pharmaceutical Co., Ltd., priority 1995, dated 2000).

Assay [1] addresses U937 phosphodiesterase IV (PDE IV). The assay is described as follows: Inhibition of U937 phosphodiesterase IV (PDE IV). The settings on record: PDE IV preparation from U937 cells, [3H]-cAMP, 10 μM CI-930 (PDE III inhibitor) present, 30°C, pH 8.0. It counts as biochemical. As to the method: Harvested U937 was freezed in -80pbC. and throwed to destroy the cell body. The pellet of destroyed cell was washed by Phosphate-buffered saline (PBS).
The washed cell pellet was homogenized with Dounce homogenizer (20 strokes) in homogenizing buffer (0.5% deoxycholate [DOC], 5 mM 2-mercaptoethanol, 1 μM leupeptin, 100 μM PMSF, 20 μM p-tosyl-L-lysine-chloromethyl ketone [TLCK] in PBS). The homogenate was centrifuged at 100,000 g×90 minutes (4pbC.) and the supernatant containing PDE IV activity was dialyzed against dialysis buffer, which was the same component as homogenizing buffer without DOC. The dialyzed supernatant of homogenate was stored in freezer (-80pbC.) as PDE IV enzyme preparation.
Enzyme preparation was diluted in assay buffer (10 mM Tris-HCl, 5 mM MgCl, 1 mM 2-Mercaptoethanol [pH 8.0]). In advance the rate of dilution was choosen every new lot of homogenizing preparation. For blank, a part of the enzyme preparation was boiled for 10 minutes. […]
The reaction tube was preincubated in a water bath (30pbC.) for 5 minutes, then 100 μl [^3 H]-cAMP (37.0 MBq/ml [^3 H]-cAMP: 4 μM cold cAMP=1:800) was added thereto. […] The mixture was centrifuged at 1000 rpm×5 minutes, and then 500 μl of the supernatant was added to 10 ml scintillation fluid in appropriate vial, vortexed, and counted for [^3 H].
The inhibitory activity was calculated according to the following equation: [formula]

The subject of assay [2] is TNF-α production in human mononuclear cells. The assay is described as follows: Inhibition on TNF-α production in human mononuclear cells. Type of assay: cell-based. Conditions: TNF-α by ELISA, human MNC, 1 μg/ml LPS (E. coli), 37°C, 16 hours. How it is done:
Blood was drawn from healthy volunteers with heparin. The mononuclear cell (MNC) fraction was obtained by gradient centrifugation (1800 rpm, 15 minutes), diluted with the same volume of RPMI-1640 culture medium, over Ficoll-Paque (Pharmacia LKB Biotechnology). MNC were washed twice with RPMI-1640. Then, MNC were resuspended in RPMI-1640 culture medium supplemented with 2 mM L-glutamine and 1% fetal bovine serum. MNC were incubated at 37pbC. for 16 hours in 96-well micro culture plate at a concentration of 3×10^5 cells/well with or without 1 μg/ml lipopolysaccharide (LPS) (from E. coli) and various amounts of test compound. At the end of incubation, the supernatant was obtained and its TNF-α active was measured by enzyme-linked immunosorbent assay (ELISA). ELISA was performed with TNF-α ELISA kit (Otsuka Pharmaceutical Co., Ltd.).
(In general: An ELISA detects its analyte on a solid surface through an enzyme-linked reagent.)

Take `CC(=O)Nc1ccc(/C=C/C(=O)Nc2cccc(-c3cccc(-n4c(=O)c(Cc5cccnc5)nc5cccnc54)c3)c2)cn1` [Test compound (a), 4-[3-[3-[(E)-3-(6-acetamido-3-pyridyl)acryloylamino]phenyl]phenyl]-2-(3-pyridylmethyl)-3-oxo-3,4-dihydropyrido[2,3-b]pyrazine]: the IC50 was 16 nM in assay [1] and 24 nM in assay [2].
